Measured values from paper PMC12040169 (PLOS Biology, 2025).

Experiment: in vitro
Conditions: human, hela cells, % viability

Compound | viability at 28.5 h, 10 µM [%] | viability at 28.5 h, 10 µM (bulk resorufin, single well) [%]
O=C(c1cccc(-c2ccc(F)cc2)c1)N1CC(O)C1 [CBK281499] | 100 | 
CN(C)c1nc(NCc2ccccc2)nc(SCC(=O)Nc2ccccc2Cl)n1 [CBK267190] | 93.3 | 
CCCn1c(C)nnc1CN(CC1CCCO1)C1CCCC1 (stereo not shown) [CBK304465] | 94.8 | 
COc1cccc(C(=O)NCCC(=O)N2CCc3c(nc[nH]c3=O)C2)c1 [CBK307231] | 103 | 
COc1cccc(-n2ccn(C(=O)CCC3CCCC3)c2=O)c1 [CBK106625] | 91.1 | 
O=C(CNS(=O)(=O)c1ccc(Br)cc1)N1CCN(Cc2ccc3c(c2)OCO3)CC1 [CBK074358] | 98.1 | 
O=C1N=C(Nc2cccc(C(=O)O)c2)S/C1=C/c1cccc(O)c1 [CBK264984] | 92.5 | 
CC1=CC(C)C(CN(CCC[N+](C)(C)C)C(=O)Nc2ccccc2)C(C)C1 (stereo not shown) [CBK262507I] | 84.3 | 
O=C(c1ccco1)N1CCN(c2ccc(-c3cccc(Cl)c3Cl)cn2)CC1 [CBK037737] | 95.4 | 
CC(C)c1ccccc1OCC(=O)N1CCCc2c(cnn2C)C1 [CBK285287] | 111 | 
Cc1cccc(-n2c(C3CCCNC3=O)n[nH]c2=S)c1 (stereo not shown) [CBK012842] | 89 | 
COc1ccccc1Oc1ccc(S(=O)(=O)N2CCOCC2)cc1S(=O)(=O)N1CCOCC1 [CBK265176] | 97.2 | 
CC(C)CC(=O)N1C[C@H]2CCCN(Cc3ccccn3)[C@H]2C1 [CBK285269] | 86.6 | 
Cc1c(N2C(=O)/C(=C3\C(=O)Nc4ccc([N+](=O)[O-])cc43)SC2=S)c(=O)n(-c2ccccc2)n1C [CBK263071] | 115 | 
CC1(NC(=O)CC[N+]23CCN(CC2)CC3)CS(=O)(=O)CC1S(=O)(=O)[O-] (stereo not shown) [CBK262518] | 92 | 
O=S(=O)(c1ccccc1)n1ccc2c(Br)cccc21 [CBK002084] | 113 | 
CCN1CCC(Oc2nccnc2OCc2cc(C)on2)CC1 [CBK082962T] | 94.7 | 
Cc1nc(C2CCCCN2C(=O)CCc2ccccc2)ncc1C(=O)Nc1ccc(F)cc1 (stereo not shown) [CBK285870] | 95.3 | 
COC(=O)COc1ccccc1/C=C1\SC(c2ccc(C)cc2)=NC1=O [CBK067741] | 92.6 | 
CC(C)c1nc(CCNC(=O)C2(Cn3ccnc3)CC2)no1 [CBK306828] | 86.2 | 
O=C1CC(C(=O)Nc2ncccn2)C(c2ccccc2)O1 (stereo not shown) [CBK265130] | 106 | 
Cc1cc(C)cc(Oc2nccn3c(=O)[nH]nc23)c1 [CBK288451] | 89.5 | 

Compound | viability at 28.5 h, 10 µM [%] | viability at 28.5 h, 10 µM (bulk resorufin, single well) [%]
Cc1cccc(-c2ncc(NC(=O)Cc3cccc(Oc4ccccc4)c3)nc2-c2ccc(N)cc2)c1 [CBK037583] | 97.2 | 
CC(=O)Nc1ccc2nc(NC(=O)c3ccc(C#N)cc3)sc2c1 [CBK287309] | 92.4 | 
Cc1cccc(-c2ncc(NC(=O)CCOc3ccccc3)nc2-c2ccc(N)cc2)c1 [CBK036655] | 113 | 
COC(=O)c1ccc(NS(=O)(=O)Cc2ccccc2)cc1 [CBK028699] | 91.4 | 
O=C(CN1C(=O)c2ccccc2S1(=O)=O)Nc1ccccc1-c1ccccc1 [CBK266390] | 102 | 
CC(C)c1nsc(NS(=O)(=O)c2cc(C(F)(F)F)cc(C(F)(F)F)c2)n1 [CBK051263] | 84.9 | 
Cc1ccsc1CN(Cc1nccn1C)CC(C)O (stereo not shown) [CBK282976] | 92.3 | 
NC(=O)c1cccc(CN2CCOC3(CCN(C(=O)OCc4ccccc4)CC3)C2)c1 [CBK161100T] | 90.4 | 
Cc1cccn2c(CN3CCCOCC3)c(C(=O)N3CCOCC3)nc12 [CBK307144] | 111 | 
O=S(=O)(c1ccccc1)c1ccccc1C(F)(F)F [CBK085887] | 104 | 
O=C(NCc1cccs1)c1ccc(-c2ccc(OC(F)(F)F)cc2)nc1 [CBK156221] | 90 | 
O=C(Cc1ccccc1)N/N=C/c1nnco1 [CBK021274] | 121 | 
NC(=O)C1(Cc2ccc(-c3ccccc3)cc2)CCN(C(=O)CCc2ccccc2)CC1 [CBK285772] | 102 | 
c1ccc(-c2cccc3c2OC2(CCNCC2)OC3)cc1 [CBK061589] |  | 105
C[S+]([O-])c1sc(Cl)c2c1C(=O)CCC2 (stereo not shown) [CBK005657] | 104 | 
Cc1nc(COc2ccc(C(=O)Nc3ccc(C(=O)O)cc3C)cc2)cs1 [CBK295360] | 91.3 | 
O=C(Nc1cccc(-c2csnn2)c1)c1ccco1 [CBK270255] | 85.2 | 
CC(C)[C@H](NS(=O)(=O)c1ccc(Cl)cc1)C(=O)NCc1ccc(Cn2cccn2)cc1 [CBK295611] | 104 | 
O=C(NCc1cccs1)C1(c2ccccc2)CCCC1 [CBK149533] | 103 | 
Cc1ccc(S(=O)(=O)Nc2ccc(Nc3nc(-c4ccccc4)cn4ccnc34)cc2)cc1 [CBK037303] | 104 | 
CC(C)n1ncc2cc(C(=O)Nc3ncccc3O)cnc21 [CBK305751] | 109 | 
Cc1c(S(=O)(=O)Nc2cccc(C(=O)OCC3CCCN(C)C3)c2)sc2ccc(Cl)cc12 (stereo not shown) [CBK167735G] | 109 | 

Compound | viability at 28.5 h, 10 µM [%] | viability at 28.5 h, 10 µM (bulk resorufin, single well) [%]
O=C(O)c1ccc(NS(=O)(=O)c2ccccc2)cc1O [CBK023181] | 96.1 | 
CCOC(=O)N1CCC(NC(=O)N(CCN(C)C)Cc2ccccc2)CC1 [CBK155121] | 109 | 
CC(C)c1cccc(-n2cc(O)c(C(=O)NCCC(=O)N(C)C)n2)c1 [CBK305234] | 86.5 | 
O=C(O)CC1S/C(=N/N=C/c2ccco2)NC1=O (stereo not shown) [CBK261371] | 93.7 | 
Cc1ccc(CN2C[C@@H]3CC[C@@](O)(c4ncccc4C)[C@@H]3C2)o1 [CBK285361] | 82.6 | 
COc1cc(NC(=O)COc2cc(C)cc(C)c2)c(C(=O)O)cc1OC [CBK268650] | 93.8 | 
Cn1cc(-c2ccc(C3CCCCN3Cc3ccnc4ccccc34)cn2)cn1 (stereo not shown) [CBK285672] | 93.3 | 
COc1cccc2cc(C3CN(C(=O)C(C)(C)NC(=O)OC(C)(C)C)CC3C(=O)O)oc12 (stereo not shown) [CBK001348] | 102 | 
Cc1cc(C)n(C)c(=O)c1C(=O)NC(C)Cc1ccccn1 (stereo not shown) [CBK283063] | 105 | 
Cc1ccc(-c2nnc3ccc(SCC(=O)NC4CCCC4)nn23)cc1 [CBK287523] | 88.8 | 
Clc1ccc(Cl)c(-c2nc3ccccc3o2)n1 [CBK095353] | 91.6 | 
O=S(=O)(c1cccc(S(=O)(=O)N2CCOCC2)c1)c1ccc(Cl)c(S(=O)(=O)N2CCOCC2)c1 [CBK261260] | 104 | 
Cc1[nH]c(=S)[nH]c(=O)c1Cc1cccc2ccccc12 [CBK115563] | 82.4 | 
Cc1cccc(N2C(=O)c3ccc(C(=O)OC(C(=O)c4ccccc4)c4ccccc4)cc3C2=O)c1 (stereo not shown) [CBK265098] | 88.8 | 
COc1cc(NC(=O)C2CCN(S(=O)(=O)c3cccs3)CC2)c(Cl)cc1C(=O)O [CBK297085] | 99.7 | 
O=S(=O)(c1ccccc1)C1CC1 [CBK023184] | 89 | 
COc1ccccc1CC(=O)N1CCC(Cc2ccc(-c3ccccc3)cc2)(C(N)=O)CC1 [CBK285777] | 95.4 | 
CCC(Oc1ccccc1F)C(=O)Nc1cc(C)on1 (stereo not shown) [CBK305558] | 98.5 | 
Cc1noc(C)c1CCC(=O)N1CC[C@H]2NC(=O)COc3ccccc3C/C=C/C[C@H]2C1 [CBK292115] | 110 | 
c1ccc2cc(-c3cc(Nc4ccc(N5CCOCC5)cc4)ncn3)ccc2c1 [CBK090929] | 94.2 | 
O=C(c1ccc(N2CCCC2)cc1)N1CCc2sccc2C1c1ccco1 (stereo not shown) [CBK285707] | 102 | 
O=C1N=C(NCC2CCCCC2)OC1Cc1ccccc1 (stereo not shown) [CBK067023] | 94.1 | 

Compound | viability at 28.5 h, 10 µM [%] | viability at 28.5 h, 10 µM (bulk resorufin, single well) [%]
Cc1ccc(Oc2ccc3c(c2)C(=O)N(CC(=O)O)C3=O)cc1 [CBK287126] | 91.4 | 
Cc1ccc2nc(-c3ccc4c(c3)CCN4S(C)(=O)=O)cn2c1 [CBK285185] | 96.6 | 
CC(C)(C)CC(C)(C)N=C(S)Nc1ccc2nc(-c3ccccn3)c(-c3ccccn3)nc2c1 [CBK265118] | 91 | 
Nc1cc(Cl)cc2[nH]c(=O)c3cc(Cl)ccc3c12 [CBK017144] | 73.3 | 
O=C(NC(N1CCOCC1)C(Cl)(Cl)Cl)c1ccc(Cl)cc1 (stereo not shown) [CBK261084] | 94.2 | 
O=C(O)CCN1C(=O)c2ccc(NC(=O)Cc3cccs3)cc2C1=O [CBK268240] | 95.9 | 
O=C(C1=C(O)C(=O)N(CCCn2ccnc2)C1c1ccncc1)c1cccs1 (stereo not shown) [CBK111017] | 106 | 
CN1CCCN(c2nc(-c3cccc(C(F)(F)F)c3)cn3ccnc23)CC1 [CBK066519] | 92 | 
FC(F)(F)c1ccc(-c2nnc(C3CC3)o2)cc1 [CBK021992] | 86.7 | 
CCc1ccccc1NC(=O)Cc1ccc(OC)cc1 [CBK087898] | 85.7 | 
CCCc1nn(CC(=O)N2CCCC2)c(=O)c2cc3ccsc3n12 [CBK284145] | 85.5 | 
O=c1c(O)c(-c2ccc(F)cc2)oc2ccccc12 [CBK288369] | 72.4 | 
O=C(NC(C(=O)N/N=C/c1cccs1)c1n[nH]c(=O)c2ccccc12)c1ccccc1 (stereo not shown) [CBK261250] | 98 | 
CCOC(=O)N1CCN(C(C(=O)O)c2c[nH]c3ccc(C)cc23)CC1 (stereo not shown) [CBK286632] | 93.1 | 
CCC(C)(C)c1ccc(S(=O)(=O)N(CCC#N)Cc2cccnc2)cc1 [CBK043960] | 89.6 | 
OCC1CCCN1c1cc(Cl)nc2ccnn12 (stereo not shown) [CBK037011] | 95.7 | 
C1C/C(=N/N=C2\CCCc3nonc32)c2nonc2C1 [CBK006721] | 93.9 | 
CCOc1ccc(-c2n[nH]c(C)c2-c2ccc(OC)c(OC)c2)c(O)c1 [CBK288106] | 102 | 
c1cncc(C(N2CCOCC2)N2CCOCC2)c1 [CBK260999] | 94.5 | 
NS(=O)(=O)c1ccc(C(=O)Nc2cnc(-c3ccc(F)cc3)c(-c3ccsc3)n2)cc1 [CBK036998] | 98.8 | 
O=S(=O)(Nc1ccc(Cc2ccncc2)cc1)N1CCCC1 [CBK268263] | 112 | 
Cc1cc(C)c2c(c1)-c1c(ssc1=S)C(C)(C)N2C(=O)CSc1nncn1C [CBK263035] | 106 | 
